One experiment deals with ornithine decarboxylase (ODC).
Assay: not given
Conditions: general knowledge; cited from earlier work.
As for `CCCCCCCCCCCCCC(=O)O[C@@H]1[C@@H](C)[C@@]2(O)[C@@H](C=C(CO)C[C@]3(O)C(=O)C(C)=C[C@@H]23)[C@@H]2C(C)(C)[C@]12OC(C)=O` [12-0-tetradecanoylphorbol-13-acetate], the “effect on ODC activity” value is on record as “induces ODC activity”.
As for `CC1=C(/C=C/C(C)=C/C=C/C(C)=C/C(=O)O)C(C)(C)CCC1` [Retinoic acid], the “effect on ODC activity” value is given as “inhibits this induction of ODC activity by TPA”.

For a further experiment, the system named is ornithine decarboxylase (ODC). The experiment can be described thus: ODC assay: inhibition of TPA induction of ODC activity. Type of experiment: in vivo. The settings on record: at conc 30 (nmol); TPA-induced ODC. From the text:
The retinoic acid-like activity of these compounds is confirmed through the classic measure of retinoic acid activity involving the effects of retlnoic acid on ornithine decarboxylase. The original work on the correlation between retinoic acid and decrease in cell proliferation was done by Verma & Boutwell, Cancer Research, 1977, 37,2196-2201. That reference discloses that ornithine decarboxylase (ODC) activity increased precedent to polyamine biosynthesis. It has been established elsewhere that increases in polyamine synthesis can be correlated or associated with cellular proliferation. Thus, if ODC activity could be inhibited, cell hyperproliferation could be modulated. […] Activity of exemplary compounds of the present invention in the above- described ODC assay is disclosed in Table 2 which provides either IC80 (or other measured per cent inhibition at the indicated concentration) for the respective exemplary compound.
As to `CCOC(=O)c1ccc(C#Cc2ccc(OC3CCCCO3)c(C34CC5CC(CC(C5)C3)C4)c2)cc1` (stereo not drawn) [Compound 9], the “% of inhib” value is 49%.
The same measure, in the same setting: the same measure for `COC(=O)c1ccc(C#Cc2ccc(OC3CCCCO3)c(C34CC5CC(CC(C5)C3)C4)c2)cc1` (stereo not drawn) [Compound 25]: 61%.

Staying with this experiment, now noted: at conc 300 (nmol); TPA-induced ODC.
As for `O=C(O)c1ccc(C#Cc2ccc(OC3CCCCO3)cc2)nc1` (stereo not drawn) [Compound 15, 6-[2-[[1-(2-tetrahydropyranoxy)]-4-phenyl]ethyn-1-yl]nicotinic acid], the “% of inhib” value is 44%.
With `CCOC(=O)c1ccc(C#Cc2cccc(OC3CCCCO3)c2)nc1` (stereo not drawn) [Compound 16, Ethyl 6-[2-[[1-(2-tetrahydropyranoxy)]-3-phenyl]ethyn-1-yl]nicotinate], the “% of inhib” value is listed as 52%.
Same read-out and setting: then `CCOC(=O)c1ccc(C#Cc2ccc(C34CC5CC(CC(C5)C3)C4)c(OC3CCCCO3)c2)nc1` (stereo not drawn) [Compound 17], with 68%; and `CCOC(=O)c1ccc(C#Cc2ccc(C34CC5CC(CC(C5)C3)C4)c(OC3CCCCO3)c2)cc1` (stereo not drawn) [Compound 18, Ethyl 4-[2-[[2-(1-adamantyl)-1-(2-tetrahydropyranoxy)]-5-phenyl]ethyn-1-yl]benzoate], with 45%.
Still for that read-out and setting: then `O=C(O)c1ccc(C#Cc2ccc(C34CC5CC(CC(C5)C3)C4)c(OC3CCCCO3)c2)nc1` (stereo not drawn) [Compound 19], with 45%.

These data come from patent US5847160A, “Acetylenes disubstituted with 2-tetrahydropyranoxy-aryl and aryl of heteroaryl groups having retinoid-like biological activity” (Allergan, priority 1997, dated 1998).
